Assay results as given in the supplement of paper PMC10331698.
± gives the standard deviation of the averaged measurements.

How the values were obtained:
Assay in all cases: level (log10 ratio to DMSO vehicle control); higher = higher biomarker level / cell amount than vehicle control
Details in all cases: in DMSO
[1] = compound: CC(C)(C)C(=O)CC(=O)C(F)(F)C(F)(F)C(F)(F)F [(Heptafluorobutanoyl)pivaloylmethane]
Protocol: (§1)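 BioMAP Diversity Plus panel of 12 human primary cell co-culture systems (3C, 4H, LPS, SAg, BT, BF4T, BE3C, CASM3C, HDF3CGF, KF3CT, MyoF, Mphg). Compounds were added 1 h before stimulation and left for 24 h (MyoF 48 h; BT 72 h for soluble read-outs or 6 d for IgG). Biomarkers were read by ELISA, cytotoxicity by SRB, PBMC viability and proliferation by Alamar Blue. Each well value was divided by the mean of 8 DMSO control wells on the same plate and log10 transformed; duplicate blinded samples were tested at 4 concentrations.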

[2] = compound: CNS(=O)(=O)C(F)(F)C(F)(F)C(F)(F)C(F)(F)C(F)(F)C(F)(F)C(F)(F)C(F)(F)F [N-Methylperfluorooctanesulfonamide]
Protocol: as §1

Azathioprine = compound: Cn1cnc([N+](=O)[O-])c1Sc1ncnc2[nH]cnc12 [Azathioprine]
Protocol: as §1

[3] = compound: FC(F)(F)C(F)(F)C(F)(F)C(F)(F)C(F)(F)C(F)(F)C(F)(F)CCI [1-Iodo-1H,1H,2H,2H-perfluorononane]
Protocol: as §1

[4] = compound: O=C(O)CCC(F)(F)C(F)(F)C(F)(F)C(F)(F)C(F)(F)F [2H,2H,3H,3H-Perfluorooctanoic acid]
Protocol: as §1

[5] = compound: O=P(O)(O)CCC(F)(F)C(F)(F)C(F)(F)C(F)(F)C(F)(F)C(F)(F)C(F)(F)C(F)(F)F [((Perfluorooctyl)ethyl)phosphonic acid]
Protocol: as §1

Row | Test System | level (log10) ([1]; 6700 nM) | level (log10) ([1]; 20000 nM) | level (log10) ([1]; 60000 nM) | level (log10) ([2]; 6700 nM) | level (log10) ([2]; 20000 nM) | level (log10) ([2]; 60000 nM) | level (log10) (Azathioprine; 1400 nM) | level (log10) (Azathioprine; 4200 nM) | level (log10) (Azathioprine; 13000 nM) | level (log10) (Azathioprine; 38000 nM) | level (log10) ([3]; 6700 nM) | level (log10) ([3]; 20000 nM) | level (log10) ([4]; 6700 nM) | level (log10) ([4]; 20000 nM) | level (log10) ([4]; 60000 nM) | level (log10) ([5]; 6700 nM) | level (log10) ([5]; 20000 nM) | level (log10) ([5]; 60000 nM)
1 | MyoF:Collagen IV | -0.0345 ± 0.021 | -0.0295 ± 0.0092 | 0.0005 ± 0.0021 | 0.228 ± 0.022 | 0.247 ± 0.024 | 0.273 ± 0.028 | 0.008 ± 0.0042 | 0.0065 ± 0.0092 | -0.013 ± 0.013 | 0.02 ± 0.016 | 0.027 ± 0.0042 | 0.082 ± 0.018 | -0.009 ± 0.021 | -0.0075 ± 0.026 | 0.0115 ± 0.023 | -0.0005 ± 0.013 | 0.012 ± 0.025 | -0.01 ± 0.057
2 | CASM3C:CXCL9/MIG | -0.004 ± 0.0014 | -0.0085 ± 0.00071 | 0.006 ± 0.011 | -0.0675 ± 0.026 | -0.086 ± 0.0085 | -0.05 ± 0.045 | 0.012 ± 0.033 | -0.0135 ± 0.005 | 0.008 ± 0.0057 | 0.0525 ± 0.042 | -0.0355 ± 0.025 | -0.057 ± 0.042 | -0.0185 ± 0.00071 | -0.0285 ± 0.0092 | 0.0045 ± 0.042 | 0.0115 ± 0.011 | 0.019 ± 0.028 | 0.041 ± 0.03
3 | HDF3CGF:SRB | 0.0015 ± 0.0021 | 0.0085 ± 0.013 | 0.0345 ± 0.032 | -0.032 ± 0.03 | 0.005 ± 0.023 | -0.008 ± 0.014 | -0.0505 ± 0.04 | -0.053 ± 0.02 | -0.018 ± 0.025 | -0.0325 ± 0.079 | 0.016 ± 0.045 | -0.052 ± 0.071 | -0.006 ± 0.034 | 0.0185 ± 0.04 | 0.077 ± 0.028 | 0.0285 ± 0.021 | -0.0095 ± 0.033 | -0.011 ± 0.033
4 | MyoF:CXCL8/IL-8 | 0.022 ± 0.05 | 0.032 ± 0.068 | 0.03 ± 0.055 | -0.0645 ± 0.056 | -0.0895 ± 0.049 | -0.163 ± 0.037 | 0.009 ± 0.014 | 0.023 ± 0.017 | 0.027 ± 0.02 | 0.0395 ± 0.015 | 0.0195 ± 0.0064 | 0.0335 ± 0.025 | -0.032 ± 0.0042 | -0.0215 ± 0.005 | -0.018 | 0.0105 ± 0.026 | 0.025 ± 0.011 | 0.038 ± 0.0028
5 | lMphg:CD69 | -0.0145 ± 0.0021 | -0.0025 ± 0.0078 | 0.051 ± 0.011 | -0.0715 ± 0.03 | -0.0165 ± 0.013 | 0.061 ± 0.027 | 0.027 ± 0.013 | -0.0205 ± 0.029 | -0.004 ± 0.0028 | 0.022 ± 0.011 | -0.0025 ± 0.023 | -0.053 ± 0.076 | -0.032 ± 0.05 | -0.0325 ± 0.063 | -0.016 ± 0.031 | -0.0125 ± 0.013 | -0.0425 ± 0.04 | 0.0275 ± 0.043
6 | BE3C:MMP-1 | -0.0025 ± 0.0035 | -0.019 ± 0.013 | 0.0095 ± 0.033 | 0.0895 ± 0.03 | 0.0995 ± 0.025 | 0.001 ± 0.054 | -0.0025 ± 0.013 | 0.001 ± 0.0057 | -0.0235 ± 0.019 | -0.0645 ± 0.0021 | 0.011 ± 0.0071 | 0.059 ± 0.031 | 0.019 ± 0.013 | 0.0225 ± 0.028 | 0.072 ± 0.048 | 0.0705 ± 0.011 | 0.111 ± 0.018 | 0.125 ± 0.061
7 | lMphg:CD40 | -0.0075 ± 0.0021 | 0.004 ± 0.034 | -0.017 ± 0.0014 | -0.054 ± 0.042 | -0.0365 ± 0.021 | 0.0255 ± 0.063 | -0.0125 ± 0.04 | -0.0205 ± 0.013 | -0.025 ± 0.0014 | -0.106 ± 0.03 | -0.0065 ± 0.00071 | -0.0225 ± 0.028 | -0.0205 ± 0.039 | -0.0235 ± 0.04 | -0.05 ± 0.041 | -0.015 ± 0.017 | -0.065 ± 0.017 | -0.037 ± 0.021
8 | BE3C:Keratin 8/18 | 0.009 ± 0.0014 | 0.009 ± 0.0057 | 0.001 ± 0.025 | -0.0025 ± 0.012 | -0.0135 ± 0.0078 | -0.0055 ± 0.023 | -0.009 ± 0.033 | 0.012 ± 0.014 | -0.02 ± 0.047 | -0.0095 ± 0.021 | -0.005 ± 0.017 | -0.007 ± 0.0085 | 0.0065 ± 0.0021 | -0.015 ± 0.011 | -0.004 ± 0.0057 | -0.015 ± 0.011 | -0.012 ± 0.0028 | -0.006 ± 0.021
